Source: patent US20120028921A1, “METHODS AND COMPOSITIONS USING OXIDIZED PHOSPHOLIPIDS” (The Johns Hopkins University, priority 2004, published 2012)
Entries after “also recorded” stand apart in the source; their conditions may differ. Values belong to the compound of their own block, whether it stands above or below them.

Columns and labels:
[1] = system: human pulmonary endothelial cells (HPAEC); test: Transendothelial electrical resistance (TER), ECIS system; type: cell-based; settings: for effect of synthetic fragmented phospholipids on TER: prepared by chemical synthesis; for effect on transendothelial electrical resistance (TER): agent alone, phospholipids up to 20 μg/ml; for co-elution with TER-increasing activity in HPLC-MS of fraction 2: reversed phase HPLC fractions tested on TER; for effect of pretreatment on OxPAPC-induced TER increase: BHT 5 μM 10 min preincubated with OxPAPC, toxin B 100 ng/ml, Y27632 5 μM, 1 hr
Description: Human pulmonary endothelial cells (HPAEC) were cultured and transfected with cDNAs as described previously (Birukov et al., 2002). Lipid oxidation and analysis of oxidation products by positive ion electrospray mass spectrometry (ESI-MS) was performed as described previously (Watson et al., 1997, Leitinger et al. 1999 and, Bochov et al. 2002). Measurements of transendothelial electrical resistance were performed using electrical cell substrate impedance-sensing (ECIS) system as described elsewhere (Garcia et al., 2001 and Birukova et al., 2004). Transient transfections and siRNA-based protein depletion of small GTPases were performed as described elsewhere (Birukov et al. 2002, Birukova et al., 2004 and Birukova et al., 2004a). Rac, Cdc42 and Rho activation assays were performed using assay kits from Upstate Biotechnology (Lake Placid, N.Y.) (Garcia et al., 2001 and Birukova et al., 2004). Subcellular protein fractionation, western blot analyses and densitometric analyses were performed from at least 3 experiments as described (Birukova et al., 2004). Immunofluorescent staining of HPAEC was performed as previously described (Birukov et al., 2002, Birukova et al., 2004). ANOVAs and a post hoc Student-Newman-Keuls test were used to compare the means of two or more different treatment groups. Results were expressed as the mean±SE. Differences between two groups were considered statistically significant with a value of P<0.05.

[2] = system: human pulmonary endothelial cells (HPAEC); settings: literature (Goggel et al. 2004); cited from earlier work
PKC = PKC activation: phospho-PKC substrate immunoblot and in vitro kinase assay of lysates; type: cell-based, human
Description: (§1) Analysis of PKC and PKA activities. After stimulation with OxPAPC (20 μg/ml, 15 min), HPAEC were lysed, cell lysates were clarified by centrifugation (14000 g, 5 min, +4 C.°), and PKA and PKC activities were measured using in vitro kinase assay kits obtained from Promega Corp. (Madison, Wis.) according to manufacturer protocol. Additionally, OxPAPC-induced PKC and PKA activation in HPAEC cultures was determined by immunoblotting of whole cell lysates with phospho-PKC substrate- and phospho-PKA substrate-specific antibodies that recognize PKA- or PKC-phosphorylated sites in the EC endogenous proteins.

Erk-1,2 = Erk-1,2 MAP kinase cascade activation, phospho-specific immunoblotting; type: cell-based, human; settings: for effect on OxPAPC-induced Erk-1,2 cascade activation/phosphorylation: UO-126 5 μM, genistein 100 μM, PKC peptide inhibitor 20 μM, BHT preincubated with OxPAPC
Description: (§2) Western immunoblotting. Protein extracts were separated by SDS-PAGE, transferred to polyvinylidene difluoride (PVDF) membranes (30 V for 18 h or 90 V for 2 h), and the membranes were incubated with specific antibodies of interest. Equal protein loadings were verified by reprobing membranes with anti-Erk, anti-Fax, or anti-paxillin antibodies. Immunoreactive proteins were detected with the enhanced chemiluminescent detection system (ECL) according to the manufacturer's directions (New England BioLabs, Beverly, Mass.). The relative intensities of the protein bands were quantified by scanning densitometry using Image Quant 5.2 (Molecular Dynamics, Piscataway, N.J.) software.
(§3) Activation of MAP kinase pathways and characterization of tyrosine phosphorylation. Activation of MAP kinase cascade was by monitored by western immunoblotting techniques using phosphospecific antibodies, which are described in Materials section and detect activated form of protein kinases of the MAP kinase cascade. Analysis of the total protein tyrosine phosphorylation was performed by immunoblotting with phosphotyrosine antibody.

[3] = system: protein tyrosine phosphorylation; test: Total protein tyrosine phosphorylation, phosphotyrosine immunoblot; type: cell-based, human; settings: for effect on OxPAPC-induced protein tyrosine phosphorylation: genistein 100 μM, BHT preincubated with OxPAPC
Description: as §2, §3

JNK = JNK MAP kinase phosphorylation, immunoblotting; type: cell-based, human
Description: as §2, §3

FAK = FAK Tyr576 phosphorylation, immunoblot; type: cell-based, human; settings: PP-2 5 μM pretreatment
Description: as §2

paxillin = test: Paxillin Tyr118 phosphorylation, immunoblot; type: cell-based, human; settings: PP-2 5 μM pretreatment
Description: as §2

PKA = PKA activation: phospho-PKA substrate immunoblot and in vitro kinase assay of lysates; type: cell-based, human; settings: phospho-PKA substrate immunoblot
Description: as §1

p38 = p38 MAP kinase phosphorylation, immunoblotting; type: cell-based, human; settings: 20 μg/ml
Description: as §2, §3

[4] = HPAEC monolayers, thrombin 50 nM

Compound: CCCCCCCCCCCCCCCC(=O)OC[C@H](COP(=O)([O-])OCC[N+](C)(C)C)OC(=O)CCCC=O [POVPC]
effect of synthetic fragmented phospholipids on TER [1]: significantly and concentration-dependently decreased TER

Compound: thrombin
effect on transendothelial electrical resistance (TER) [1, 4]: abrupt decrease in TER | TER recovery time after maximal TER decline ([1]; thrombin 50 nM, with or without OxPAPC 20 μg/ml, five experiments): 115 min

Compound: CCCCC/C=C\CC1C=CC(=O)/C1=C/C1OC1CCCC(=O)O[C@H](COC(=O)CCCCCCCCCCCCCCC)COP(=O)([O-])OCC[N+](C)(C)C (stereo partly drawn) [PECPC, 1-palmitoyl-2-(epoxycyclopentenone)-sn-glycero-3-phosphorylcholine]
co-elution with TER-increasing activity in HPLC-MS of fraction 2 [1]: co-eluted with the fraction exhibiting major barrier-protective activity; also recorded: co-eluted with TER increasing activity

Compound: CCCCCCCCCCCCC/C=C/[C@@H](O)[C@@H](N)COP(=O)(O)O [S1P, sphingosine 1-phosphate]
concentration giving maximal barrier protective effect ([1]; HPAEC monolayers): 1 µM | effect on transendothelial electrical resistance (TER) [1, 4]: rapid concentration-dependent TER increase

Compound: platelet activating factor [PAF]
barrier effect compared with OxPAPC [2]: does not mimic barrier-protective OxPAPC effects

Compound: CN(C)CCCn1cc(C2=C(c3c[nH]c4ccccc34)C(=O)NC2=O)c2ccccc21 [bisindolmaleimide I]
effect on OxPAPC-induced PKC activity (PKC; in vitro kinase assay, preincubation 1 hour): attenuated OxPAPC-induced PKC activation to a lesser extent

effect on OxPAPC-induced Erk-1,2 cascade activation/phosphorylation (Erk-1,2): attenuated
Compound: O=c1c(-c2ccc(O)cc2)coc2cc(O)cc(O)c12 [genistein]
effect on OxPAPC-induced protein tyrosine phosphorylation [3]: abolished

Compound: Cc1cc(C(C)(C)C)c(O)c(C(C)(C)C)c1 [BHT, butylated hydroxytoluene]
effect of preincubation on OxPAPC-induced JNK activation (JNK; OxPAPC preincubated with BHT): same levels of JNK activation | effect on OxPAPC-induced Erk-1,2 cascade activation/phosphorylation (Erk-1,2): same levels of Erk-1,2 activation | effect on OxPAPC-induced protein tyrosine phosphorylation [3]: did not affect | effect of pretreatment on OxPAPC-induced TER increase [1]: did not affect

Compound: CC(C)(C)n1nc(-c2ccc(Cl)cc2)c2c(N)ncnc21 [PP-2]
effect on OxPAPC-induced FAK phosphorylation (FAK): attenuated | effect on OxPAPC-induced paxillin phosphorylation (paxillin): attenuated

Compound: CCCCC/C=C\C/C=C\C/C=C\C/C=C\CCCC(=O)O[C@H](COC(=O)CCCCCCCCCCCCCCC)COP(=O)([O-])OCC[N+](C)(C)C [PAPC, 1-palmitoyl-2-arachidomoyl-sn-glycero-3-phosphorylcholine]
phosphorylation / activation of JNK (JNK; 20 μg/ml): without effect | PKC-mediated phosphorylation of endogenous substrates (PKC; phospho-PKC substrate immunoblot): did not significantly increase | Erk-1,2 activation (Erk-1,2; 20 μg/ml): had no effect | PKA-mediated phosphorylation of endogenous substrates / PKA activation (PKA): did not induce PKA activation | phosphorylation / activation of p38 (p38): without effect | protein tyrosine phosphorylation ([3]; 20 μg/ml): without effect | effect on transendothelial electrical resistance (TER) [1, 4]: did not exhibit significant effects

effect on OxPAPC-induced Erk-1,2 cascade activation/phosphorylation (Erk-1,2): completely abolished
Compound: N#CC(=C(/N)Sc1ccccc1N)/C(C#N)=C(/N)Sc1ccccc1N [UO-126]

Compound: C[C@@H](N)[C@H]1CC[C@H](C(=O)Nc2ccncc2)CC1 [Y27632]
effect of pretreatment on OxPAPC-induced TER increase [1]: not

Compound: lysoPC
effect of synthetic fragmented phospholipids on TER [1]: significantly and concentration-dependently decreased TER

Compound: CCCCC/C=C\CC1/C(=C\C2OC2CCCC(=O)O[C@H](COC(=O)CCCCCCCCCCCCCCC)COP(=O)([O-])OCC[N+](C)(C)C)C(=O)CC1O (stereo partly drawn) [PEIPC, 1-palmitoyl-2-(epoxyisoprostane E2)-sn-glycero-3-phosphocholine]
co-elution with TER-increasing activity in HPLC-MS of fraction 2 [1]: co-eluted with TER increasing activity

Compound: CCCCCCCCCCCCCC(=O)OC[C@H](COP(=O)([O-])OCC[N+](C)(C)C)OC(=O)CCCCCCCCCCCCC [DMPC, dimyristoyl phosphatidyl choline]
effect on transendothelial electrical resistance (TER) [1, 4]: did not exhibit significant effects

Compound: CCCCC/C=C\C/C=C\CCCCCCCC(=O)OC(COC(=O)CCCCCCCCCCCCCCC)COP(=O)([O-])OCC[N+](C)(C)C (stereo not drawn) [PLPC, palmitoyl-linoleate phosphatidyl choline]
effect on transendothelial electrical resistance (TER) [1, 4]: did not exhibit significant effects

Compound: CCCCCCCCCCCCCCCC(=O)OC[C@H](COP(=O)([O-])OCC[N+](C)(C)C)OC(=O)CCCC(=O)O [PGPC]
effect of synthetic fragmented phospholipids on TER [1]: significantly and concentration-dependently decreased TER
